Test results as given in ChEMBL document CHEMBL3414500, “New polycyclic dual inhibitors of the wild type and the V27A mutant M2 channel of the influenza A virus with unexpected binding mode” (Eur J Med Chem, 2015).
The source made the active and inactive calls. The calls are words filed in the database; no cut-off is given here.

Assays:
[1] = molecular target: Matrix protein 2 (Influenza A virus) (UniProt P06821); type: cell membranes; details: Influenza A virus (A/udorn/1972(H3N2)); 100 uM
Matrix protein 2 = Matrix protein 2 (Influenza A virus, UniProt P06821); type: cell membranes, Influenza A virus (A/udorn/1972(H3N2))
Sequence of Matrix protein 2 (P06821 whole entry): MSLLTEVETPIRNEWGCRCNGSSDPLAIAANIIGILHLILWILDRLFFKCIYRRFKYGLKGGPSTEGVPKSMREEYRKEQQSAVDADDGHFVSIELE

Influenza A virus [2] = assay: Antiviral activity against Influenza A virus (A/PR/8/34(H1N1)) infected in MDCK cells assessed as reduction of virus-induced cytopathic effect after 72 hrs by microscopic analysis; type: functional, organism-based; details: A/Puerto Rico/8/1934(H1N1)
Influenza A virus [3] = assay: Antiviral activity against Influenza A virus (A/PR/8/34(H1N1)) infected in MDCK cells assessed as cell viability after 72 hrs by MTS assay; type: functional, organism-based; details: A/Puerto Rico/8/1934(H1N1)
[4] = Antiviral activity against Influenza A virus (A/HK/7/87(H3N2)) infected in MDCK cells assessed as reduction of virus-induced cytopathic effect after 72 hrs by microscopic analysis; type: functional, cell-based, Influenza A virus (A/Hong Kong/7/1987(H3N2))
[5] = Antiviral activity against Influenza A virus (A/HK/7/87(H3N2)) infected in MDCK cells assessed as cell viability after 72 hrs by MTS assay; type: functional, cell-based, Influenza A virus (A/Hong Kong/7/1987(H3N2))
[6] = Antiviral activity against Influenza A virus (A/HK/7/87(H3N2)) infected in MDCK cells assessed as virus plaque reduction preincubated for 1 hr followed by compound wash out and incubated for 72 hrs by crystal violet staining; type: functional, cell-based, Influenza A virus (A/Hong Kong/7/1987(H3N2))
[7] = Antiviral activity against Influenza A virus (A/HK/7/87(H3N2)) infected in MDCK cells assessed as 2-log10 reduction in virus yield after 24 hrs by RT-qPCR analysis; type: functional, Influenza A virus (A/Hong Kong/7/1987(H3N2))
[8] = Cytotoxicity against MDCK cells assessed as cell viability after 72 hrs by MTS assay; type: cell-based, Canis lupus familiaris; details: dog
[9] = Cytotoxicity against MDCK cells assessed as alternations in cell morphology after 72 hrs; type: cell-based, Canis lupus familiaris; details: dog
Influenza B virus = assay: Antiviral activity against Influenza B virus (B/HK/5/72) infected in MDCK cells assessed as reduction of virus-induced cytopathic effect after 72 hrs by microscopic analysis; type: functional, cell-based; details: B/Hong Kong/05/1972

Sequence of Matrix protein 2 (Influenza A virus) (P06821 whole entry): as above

Compound	inhibition [1] [%]	IC50 (Matrix protein 2) [µM]	EC50 (Influenza A virus [2]) [µM]	EC50 (Influenza A virus [3]) [µM]	EC50 [4] [µM]	EC50 [5] [µM]	EC50 [6] [µM]	EC99 [7] [µM]	CC50 at 72 h [8] [µM]	MCC at 72 h [9] [µM]	Activity (Influenza B virus)
C1C2[C@@H]3[C@H]2[C@@H]2C1[C@H]3[C@@H]1CNC[C@@H]12	93.7	3.3	> 100	> 100	> 100	> 100	6.7	28	> 100	> 100	inactive
C1=C[C@H]2[C@H]3[C@H]4[C@@H]1[C@@H]1[C@H]2[C@@H]2[C@H]3[C@@H]3CNC[C@@H]3[C@H]4[C@H]12	96.4	2.6	> 100	> 100	> 100	> 100	0.37	3.45	11	20	inactive
N=C(N)N1C[C@@H]2[C@H](C1)[C@@H]1[C@@H]3[C@H]4C=C[C@H]5[C@@H]3[C@H]2[C@H]2[C@@H]5[C@@H]4[C@@H]12	89.6	6.5	> 100	> 100	> 100	> 100	> 5	> 2	1.2	2	inactive
N=C(N)N1C[C@@H]2[C@H](C1)[C@@H]1[C@@H]3[C@H]4CC[C@H]5[C@@H]3[C@H]2[C@H]2[C@@H]5[C@@H]4[C@@H]12	90.6	3.7	> 100	> 100	> 100	> 100	> 5	> 2	4.6	7	inactive
N=C(N)N1CC2C3CCC(C4CCC43)C2C1 (stereo not given)	94.5										
C1C[C@H]2[C@H]3[C@H]4[C@@H]1[C@@H]1[C@H]2[C@@H]2[C@H]3[C@@H]3CNC[C@@H]3[C@H]4[C@H]12	98.1	2.1	> 100	> 100	> 100	> 100	0.54	> 2	3.7	4	inactive
Brc1ccc(CNC23CC4CC(CC(C4)C2)C3)s1	77										
N=C(N)N1C[C@@H]2[C@H](C1)[C@H]1C3CC4[C@H]([C@H]41)[C@@H]32	99	0.8	> 100	> 100	> 100	> 100	> 100	> 50	50	> 100	inactive
CC(N)C12CC3CC(CC(C3)C1)C2 (stereo not given) [RIMANTADINE]			7.6	5.1	0.81	0.15	0.02	1.77			
NC12CC3CC(CC(C3)C1)C2 [AMANTADINE]			30	34	1.4	1.4	0.14	0.72			
